From PubChem BioAssay (NCI)
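Where inhibition never reached the appropriate level, the endpoint shown equals the highest concentration tested. Otherwise, values were interpolated linearly from a five-concentration, 48-hour dose response in 96-well plates. At the GI50, growth is halved. TGI marks complete inhibition of growth.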

Columns and labels:
Assay in all cases: inhibition of tumour cell growth, NCI panel, 48 h
[1] = tested on: 786-0 renal
[2] = tested on: A498 renal
[3] = tested on: A549 NSCLC
[4] = tested on: ACHN renal
[5] = tested on: BT-549 breast
[6] = tested on: CAKI-1 renal
[7] = tested on: COLO 205 colon
[8] = tested on: DU-145 prostate
[9] = tested on: EKVX NSCLC
[10] = tested on: HCC-2998 colon
[11] = tested on: HCT-116 colon
[12] = tested on: HCT-15 colon
[13] = tested on: HL-60(TB) leukemia
[14] = tested on: HOP-62 NSCLC
[15] = tested on: HOP-92 NSCLC
[16] = tested on: HS 578T breast
[17] = tested on: HT29 colon
[18] = tested on: IGROV1 ovarian
[19] = tested on: K-562 leukemia
[20] = tested on: KM12 colon
[21] = tested on: LOX IMVI melanoma
[22] = tested on: M14 melanoma
[23] = tested on: MALME-3M melanoma
[24] = tested on: MCF7 breast
[25] = tested on: MDA-MB-231 breast
[26] = tested on: MDA-MB-435
[27] = tested on: MOLT-4 leukemia
[28] = tested on: NCI-H226 lung
[29] = tested on: NCI-H23 lung
[30] = tested on: NCI-H460 lung
[31] = tested on: NCI-H522 lung
[32] = tested on: NCI/ADR-RES ovarian
[33] = tested on: OVCAR-3 ovarian
[34] = tested on: OVCAR-4 ovarian
[35] = tested on: OVCAR-5 ovarian
[36] = tested on: OVCAR-8 ovarian
[37] = tested on: PC-3 prostate
[38] = tested on: RPMI-8226 leukemia
[39] = tested on: RXF 393 renal
[40] = tested on: SF-268 CNS
[41] = tested on: SF-295 CNS
[42] = tested on: SF-539 CNS
[43] = tested on: SK-MEL-2 melanoma
[44] = tested on: SK-MEL-28 melanoma
[45] = tested on: SK-MEL-5 melanoma
[46] = tested on: SK-OV-3 ovarian
[47] = tested on: SN12C renal
[48] = tested on: SNB-19 CNS
[49] = tested on: SW-620 colon
[50] = tested on: T-47D breast
[51] = tested on: TK-10 renal
[52] = tested on: U251 CNS
[53] = tested on: UACC-257 melanoma
[54] = tested on: UACC-62 melanoma
[55] = tested on: UO-31 renal

Cc1cc[c-]cc1.Fc1c[c-]c(-c2ccccn2)c(F)c1.[Pt+2].c1ccc(P(C[PH+](c2ccccc2)c2ccccc2)c2ccccc2)cc1
GI50 [1]: 2.92 µM | TGI [1]: 10.1 µM | GI50 [2]: 2.04 µM | TGI [2]: 6.11 µM | GI50 [3]: 1.43 µM | TGI [3]: 12.1 µM | GI50 [4]: 2.89 µM | TGI [4]: 9.84 µM | GI50 [5]: 2.62 µM | TGI [5]: 12.2 µM | GI50 [6]: 2.43 µM | TGI [6]: 9.03 µM | GI50 [7]: 1.84 µM | TGI [7]: 3.76 µM | GI50 [8]: 2.99 µM | TGI [8]: 12.8 µM | GI50 [9]: 2.32 µM | TGI [9]: 12.7 µM | GI50 [10]: 2.96 µM | TGI [10]: 12.1 µM | GI50 [11]: 2.65 µM | TGI [11]: 11.2 µM | GI50 [12]: 3.21 µM | TGI [12]: 12.6 µM | GI50 [13]: 2.36 µM | TGI [13]: 6.88 µM | GI50 [14]: 2.84 µM | TGI [14]: 10.7 µM | GI50 [15]: 1.57 µM | TGI [15]: 4.97 µM | GI50 [16]: 2.61 µM | TGI [16]: 9.94 µM | GI50 [17]: 2.61 µM | TGI [17]: 12.4 µM | GI50 [18]: 2.11 µM | TGI [18]: 12.2 µM | GI50 [19]: 1.56 µM | TGI [19]: 12.2 µM | GI50 [20]: 2.4 µM | TGI [20]: 9.23 µM | GI50 [21]: 2.19 µM | TGI [21]: 6.24 µM | GI50 [22]: 2.91 µM | TGI [22]: 13.7 µM | GI50 [23]: 1.7 µM | TGI [23]: 5.06 µM | GI50 [24]: 2.33 µM | TGI [24]: 7.83 µM | GI50 [25]: 2.6 µM | TGI [25]: 8.47 µM | GI50 [26]: 2.18 µM | TGI [26]: 6.2 µM | GI50 [27]: 3.35 µM | TGI [27]: 12.2 µM | GI50 [28]: 2.93 µM | TGI [28]: 11.6 µM | GI50 [29]: 2.21 µM | TGI [29]: 8.67 µM | GI50 [30]: 1.77 µM | TGI [30]: 7.1 µM | GI50 [31]: 2.12 µM | TGI [31]: 8.27 µM | GI50 [32]: 13.9 µM | TGI [32]: 48.2 µM | GI50 [33]: 1.72 µM | TGI [33]: 10.6 µM | GI50 [34]: 2.17 µM | TGI [34]: 9.4 µM | GI50 [35]: 2.99 µM | TGI [35]: 11.9 µM | GI50 [36]: 2.68 µM | TGI [36]: 15.4 µM | GI50 [37]: 1.76 µM | TGI [37]: 11.7 µM | GI50 [38]: 0.719 µM | TGI [38]: 4.38 µM | GI50 [39]: 2.45 µM | TGI [39]: 8.64 µM | GI50 [40]: 2.9 µM | TGI [40]: 13.5 µM | GI50 [41]: 2.56 µM | TGI [41]: 10.2 µM | GI50 [42]: 3.34 µM | TGI [42]: 12.4 µM | GI50 [43]: 2.36 µM | TGI [43]: 6.61 µM | GI50 [44]: 2.86 µM | TGI [44]: 10.3 µM | GI50 [45]: 1.66 µM | TGI [45]: 3.05 µM | GI50 [46]: 2.77 µM | TGI [46]: 7.79 µM | GI50 [47]: 2.4 µM | TGI [47]: 10.1 µM | GI50 [48]: 2.81 µM | TGI [48]: 12.8 µM | GI50 [49]: 2.83 µM | TGI [49]: 12.4 µM | GI50 [50]: 2.34 µM | TGI [50]: 9.47 µM | GI50 [51]: 2.93 µM | TGI [51]: 14.8 µM | GI50 [52]: 2.32 µM | TGI [52]: 12.2 µM | GI50 [53]: 2.37 µM | TGI [53]: 8.15 µM | GI50 [54]: 2.04 µM | TGI [54]: 9.31 µM | GI50 [55]: 2.13 µM | TGI [55]: 7.53 µM
